Results as given in patent US7226947B1, “Use of creatine as a fat substitute” (AlzChem Trostberg GmbH, priority 1999, dated 2007).

Tested on: growing hens
Test: Effect of addition of creatine in the feed for growing hens
Format: in vivo
Details: 0.2% creatine (0.2 g/kg) added to air-dried feed, growing period of 41 days
Source text: The effect of addition of creatine in the feed for growing hens was studied. It was found here that by adding 0.2% creatine […] to the air-dried feed for a growing period of 41 days, an increase in the final weight of 4% compared with previous feeding methods (without creatine addition) was achieved. […] The feed consumption decreased here by about 2–3% in comparison with previous feeding methods.

Q: With `CN(CC(=O)O)C(=N)N` [creatine] as the compound, how does the “decrease in feed consumption in comparison with previous feeding methods” value read?
A: 2–3%

Q: And the “increase in the final weight compared with previous feeding methods (without creatine addition)” value?
A: 4%

Q: What about the meat quality of the same compound?
A: improved quality

Q: What about the “nature of the increase in weight (meat vs fat; lean body mass index)” value of the same compound?
A: only by increase in meat, but not by increase in fat
